Like-named read-outs stand apart in the source and are kept apart here.
Tests used:
[1] = system: patient one suffering from Ankylosing Spondylitis; assay: Clinical course of a patient with ankylosing spondylitis (Example 7); format: in vivo, human; details: for control of the disease by prior therapy: before pramipexole
[2] = system: sympathetic nervous system activity in the heart; details: for sympathetic / tension / total power / vagus: one patient on pramipexole plus steroid therapy; for sympathetic (heart rate variability) / tension (heart rate variability) / total power (heart rate variability) / vagus (heart rate variability): one patient
From the text: This system is commercially available as The OmegaWave Sport Technology System, which is sold by OmegaWave Sport, Inc., 2732 Sunnyview Lane, Eugene, Oreg. 97405, USA. […] FIG. 4 illustrates one embodiment of components of the system and various electrode/sensor placements on the human body. System 10 is adapted to perform the following tests on a human body: Heart Rate Variability; Differential electrocardiogram (ECG); Omega Wave; Jump; and Stimulus Response. In the practice of the present invention, system 10 is used to perform the Heart Rate Variability test.
Referring to FIG. 7, a diagram that illustrates the steps of conducting a heart rate variability test in accordance with the present invention is shown. In step 110, a person receiving a test (PRT) positions him or herself for sensor attachment. In step 112, the sensors are attached. In step 114, a user selects the desired heart rate variability test from CD 50. In step 115, ID 40 is initialized for appropriate data sensing and data propagation by CD 50. In step 116, the PRT is instructed to attain or maintain a state of rest. In step 117, the machine executable steps of the selected test(s) is/are carried out by CD 50. […] A description of machine executable steps of the heart rate variability test selected in step 114 of FIG. 7 is now presented. Processing cardiac signals as discussed below permits quantitative and qualitative analysis of the functional state of cardiac activity.
In this representative heart rate variability test, four electrode sensors are preferably utilized and they are preferably placed one each on the wrists and ankles. One sensor electrode is a ground and the other three collect standard ECG data or the like. Alternative sensor placement may be utilized. The heart rate variability test is based on the registration of cardiac contractions of standard electrocardiogram (ECG) readings over the course of a fixed span of time. The test records the change of period length (in seconds) between each cardiac contraction which is the time between ECG spikes, which are designated with the letter R.
After initialization of ID 40, cardiac muscle electrical activity is recorded for a fixed time period, e.g., 128 seconds (step 152). A fixed number of consecutive heart beat intervals (RR intervals), e.g., 100, is selected and analyzed (step 154). The intervals are processed in this exemplary method using a fast Fourier transformation to achieve frequency spectrum analysis (step 156) and the density of interval frequencies is plotted in a frequency spectrum-gram (step 158). Frequency spectrum analysis is known in the art as described supra. The following frequency ranges are preferably plotted: high frequency=0.15 to 0.4 Hz; low frequency=0.04 to 0.15 Hz; and very low frequency=0.004 to 0.04 Hz.
In step 172, various indices for cardiovascular system performance are calculated based on frequency spectrum and other data and these include: Vagus (parasympathetic) Regulation (VR); Humoral Regulation (HR); Sympathetic Regulation (SR); Tension (Stress) Index; Share of aperiodic influences; Standard deviation; and Frequency of Cardiac Contractions (FCC). Calculation of these or related indices is known in the art. (See, e.g., Baevskiy, R. M., et al., Mathematical Analysis of Changes in Heart Rate Rhythm Under Stress, Moscow Science, 1984). These indices may be interpreted to generate textual conclusions about the functional state of cardiac activity.
The OmegaWave Sport Technology System, described herein and in published United States patent application serial number U.S. 2002/0045835 A1, provides three values that can be used singly, or in combination, to determine whether sympathetic nervous system activity predominates over parasympathetic nervous system activity in the heart: activity of the vagus (parasympathetic) regulation mechanisms; activity of the sympathetic regulation mechanisms; and Tension index.

[3] = system: patient two suffering from autoimmune hemolytic anemia with leukopenia; details: one patient
From the text: Patient two suffered from autoimmune hemolytic anemia. The patient had leukopenia (reduced white blood cell (WBC) count; 2,300 WBC). Steroids were recommended, but the patient refused. The patient's heart rate variability was monitored using system 10: vagus, 0.17; sympathetic, 52; tension, 199; total power, 201. […] Therefore, pramipexole was prescribed for administration at night to address sympathetic overactivity. The patient's symptoms improved, and their WBC count began to increase (2400). These changes correlated with a reduction in excessive sympathetic nervous system activity: vagus, 0.22; sympathetic, 45; tension, 147; total power, 294.
The patient discontinued pramipexole against medical advice. WBC decreased to 2100 as excessive sympathetic nervous system activity increased: vagus, 0.20; sympathetic, 70; tension, 236; total power, 280.

[4] = system: patient suffering from severe, previously untreatable, psoriatic arthropathy; assay: Clinical course of a patient with severe psoriatic arthropathy (Example 3); format: in vivo, human; details: one patient
From the text: The following heart rate variability measurements were made in the patient using system 10: vagus, 0.16; sympathetic, 54; tension, 220; total power, 283.

[5] = after the patient discontinued pramipexole
[6] = pramipexole 2.0 mg per day at bedtime, with etanercept
[7] = pramipexole increased over 4 weeks to 4.5 mg per day at bedtime

## CN(Cc1cnc2nc(N)nc(N)c2n1)c1ccc(C(=O)N[C@@H](CCC(=O)O)C(=O)O)cc1 [methotrexate]
[1]
  control of the disease by prior therapy: failed to control

## CCCN[C@H]1CCc2nc(N)sc2C1 [pramipexole]
[2]; Dec. 11, 2001
  sympathetic: 61
  tension: 374
  total power: 102
  vagus: .10
[2]; Feb. 5, 2002
  sympathetic: 87
  tension: 569
  total power: 128
  vagus: .09
[2]; Nov. 14, 2001
  sympathetic: 93
  tension: 1278
  total power: 24
  vagus: .05
[2]; Oct. 10, 2001
  sympathetic: 93
  tension: 1444
  total power: 29
  vagus: .05
[2]; [5]
  sympathetic (heart rate variability): 70
  tension (heart rate variability): 236
  total power (heart rate variability): 280
  vagus (heart rate variability): 0.20
[2]; on pramipexole at night
  sympathetic (heart rate variability): 45
  tension (heart rate variability): 147
  total power (heart rate variability): 294
  vagus (heart rate variability): 0.22
[2]; [6]
  sympathetic (heart rate variability): 54
  tension (heart rate variability): 220
  total power (heart rate variability): 283
  vagus (heart rate variability): 0.16
[2]; [7]
  sympathetic (heart rate variability): 43
  total power (heart rate variability): 319
  vagus (heart rate variability): 0.19
[2]; pramipexole increased over 4 weeks to 4.5 mg per day at bedtime, now normal
  tension (heart rate variability): 145
[3]; [5]
  WBC: 2100
[3]; on pramipexole at night, 2,300 before treatment
  WBC count: 2400

## C[C@]12C=CC(=O)C=C1CC[C@@H]1[C@@H]2C(=O)C[C@@]2(C)[C@H]1CC[C@]2(O)C(=O)CO [prednisone]
[1]; prednisone 40 mg per day
  adverse outcome of excessive prednisone: avascular necrosis of both hips and hip replacement

## etanercept
[4]; fifteen years, before pramipexole
  response of chronic joint flares and synovial thickening to treatment: resistant
[4]; over six weeks, pramipexole 2.0 mg per day at bedtime
  effectiveness of etanercept after pramipexole was added: became more effective
[1]
  control of the disease by prior therapy: failed to control
